Structures can show the parent of a compound that is named as a salt.
Legend:
[1] = system: Salmonella Typhimurium TA98; assay: Ames test, TA98
Method: (§1) Before the test, Salmonella Typhimurium (S. Typhimurium) TA97a, TA98, TA100, TA102, TA1535 and Escherichia coli WP2uvrA pKM101 (pKM101) were first checked for their genetic integrity, including biotin dependence, rfa marker (crystal violet), biotin, histidine dependence and presence of the plasmid pKM101 (ampicillin resistance) or pAQ1 (tetracycline resistance). […] The maximum concentration of EDT was also screened using a preliminary experiment.
(§2) DMSO (0.1 mL) was directly incorporated into 1.9 mL melted top agar as the vehicle control. […] Each strain (0.1 mL, 6–7 log10 CFU/mL) was added into 2 mL of top agar in which comprised 0.5 mL S9 (10%), serial concentrations of EDT (2000, 400, 80, 16 and 3.2 μg/plate), DMSO or control chemicals for testing with the S9. For testing without S9, 0.5 mL phosphate buffer saline (PBS, pH 7.4) replaced the S9 mix. Then, the obtained top agar was melted, poured onto the surface of […] and swirled to distribute the top agar to all surfaces of medium, followed by incubation at 37 °C for 48 h. The resultant colonies were counted manually as the number of revertant colonies per plate. The experiments were performed in triplicate and the results were expressed as the average ± SD.

[2] = system: Salmonella Typhimurium TA100; assay: Ames test, TA100; assay type: cell-based
Method: as §1, §2

[3] = system: Escherichia coli WP2uvrA pKM101; assay: Ames test, pKM101
Method: as §1, §2

[4] = system: Salmonella Typhimurium TA102; assay: Ames test, TA102
Method: as §1, §2

[5] = target: T1, CYP1A2 (Rattus norvegicus, UniProt P04799); assay: CYP450 inhibition in liver microsomes, probe substrate; assay type: biochemical; details: 30 min
T1 construct: from tissue; host or cells: rat liver microsomes
T1 sequence (P04799 1-513): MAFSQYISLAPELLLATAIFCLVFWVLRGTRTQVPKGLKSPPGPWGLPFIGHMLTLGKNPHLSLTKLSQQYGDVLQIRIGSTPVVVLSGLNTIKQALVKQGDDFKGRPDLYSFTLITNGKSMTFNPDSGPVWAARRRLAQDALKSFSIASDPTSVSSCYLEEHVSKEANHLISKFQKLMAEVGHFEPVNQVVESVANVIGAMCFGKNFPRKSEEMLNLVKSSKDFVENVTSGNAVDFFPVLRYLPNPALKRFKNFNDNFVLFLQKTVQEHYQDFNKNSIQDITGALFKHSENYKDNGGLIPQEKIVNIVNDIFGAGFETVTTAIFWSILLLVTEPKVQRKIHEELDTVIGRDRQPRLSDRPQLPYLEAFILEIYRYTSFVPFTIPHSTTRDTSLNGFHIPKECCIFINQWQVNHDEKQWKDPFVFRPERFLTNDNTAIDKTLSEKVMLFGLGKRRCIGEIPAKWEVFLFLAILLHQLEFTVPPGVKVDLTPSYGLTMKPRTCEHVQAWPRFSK
Method: (§3) Inhibition effects of EDT on cytochrome P450 were evaluated with rat liver microsomes in vitro[43]. Briefly, 12.8 mg EDT was dissolved in methanol and stored at 4 °C as reserve solution. A variety of specific probe substrate (1 μL), EDT solution (1 μL), incubation mixture (193 μL) in which contained glucose-6-phosphate, glucose-6-phosphate dehydrogenase, potassium phosphate buffer, magnesium chloride buffer and PBS buffer, were added into 5 μL liver microsomes to start the reaction at 37 °C. The final concentration of EDT in each group was 0.1, 1, 5, 10, 50, 100 μM. After 30 min, the reaction was terminated by adding the same volume of pre-cooled acetonitrile into the incubation system. After centrifugation for 10 min (8000×g at 4 °C), 10 μL supernatant was removed to analyze the metabolites of specific probe substrate by HPLC. The effects of EDT on CYP450 subtypes were evaluated using formula as follow: (1 − Cn/C0) × 100%, where Cn was substrate metabolite of different concentration of EDT, and C0 was metabolite of blank group.

[6] = system: CYP2D6; assay: as above; assay type: biochemical; details: CYP2D6, rat liver microsomes
Method: as §3

[7] = system: CYP2C9; assay: as above; assay type: biochemical; details: CYP2C9, rat liver microsomes
Method: as §3

[8] = system: CYP2A6; assay: as above; assay type: biochemical; details: CYP2A6, rat liver microsomes
Method: as §3

[9] = target: T2, CYP2E1 (Rattus norvegicus, UniProt P05182); assay: as above; assay type: biochemical; details: 30 min
T2 construct: from tissue; host or cells: rat liver microsomes
Method: as §3

[10] = system: CYP2C19; assay: as above; assay type: biochemical; details: CYP2C19, rat liver microsomes
Method: as §3

[11] = system: CYP3A4; assay: as above; assay type: biochemical; details: CYP3A4, rat liver microsomes
Method: as §3

[12] = system: Salmonella Typhimurium TA97a; assay: Ames test, TA97a
Method: as §1, §2

[13] = system: CYP3A4; details: cited from earlier work

T2 sequence (P05182 whole entry): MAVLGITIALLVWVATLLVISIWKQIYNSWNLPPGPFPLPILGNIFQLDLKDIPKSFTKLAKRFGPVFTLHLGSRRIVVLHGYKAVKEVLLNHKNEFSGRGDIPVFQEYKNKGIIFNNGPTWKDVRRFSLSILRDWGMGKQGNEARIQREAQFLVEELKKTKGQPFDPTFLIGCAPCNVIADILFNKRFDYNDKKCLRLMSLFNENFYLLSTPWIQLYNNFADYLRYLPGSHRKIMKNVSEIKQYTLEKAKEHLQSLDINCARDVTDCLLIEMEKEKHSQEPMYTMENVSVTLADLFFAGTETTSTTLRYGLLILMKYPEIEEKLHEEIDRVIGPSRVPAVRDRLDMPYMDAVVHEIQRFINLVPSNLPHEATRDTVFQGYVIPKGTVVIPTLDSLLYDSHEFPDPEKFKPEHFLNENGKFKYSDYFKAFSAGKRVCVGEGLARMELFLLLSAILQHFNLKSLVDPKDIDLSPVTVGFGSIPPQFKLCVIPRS

In the case of `C=CC1(C)CC(OC(=O)CSc2nc(C)c(C(=O)OCC)c(C)n2)C2(C)C(C)CCC3(CCC(=O)C32)C(C)C1O` (stereo not shown) [EDT, 14-O-[(5-ethoxycarbonyl-4,6-dimethylpyrimidine-2-yl)thioacetyl] mutilin], the “number of revertant colonies per plate” value ([1]; TA98, 3.2 μg/plate, +S9) is reported as 22.00 ± 2.00, the “number of revertant colonies per plate” value ([1]; TA98, 3.2 μg/plate, −S9) is reported as 21.67 ± 1.67 and the “number of revertant colonies per plate” value ([1]; TA98, 16 μg/plate, +S9) is reported as 24.00 ± 4.00. For the same compound, the “number of revertant colonies per plate” value ([1]; TA98, 16 μg/plate, −S9) was 23.33 ± 2.67, the “number of revertant colonies per plate” value ([1]; TA98, 80 μg/plate, +S9) was 19.00 ± 3.00 and the “number of revertant colonies per plate” value ([1]; TA98, 80 μg/plate, −S9) was 23.33 ± 2.67. The “number of revertant colonies per plate” value ([1]; TA98, 400 μg/plate, +S9) was 25.00 ± 4.00, the “number of revertant colonies per plate” value ([1]; TA98, 400 μg/plate, −S9) was 26.67 ± 3.33 and the “number of revertant colonies per plate” value ([1]; TA98, 2000 μg/plate, +S9) was 29.67 ± 2.33. The “number of revertant colonies per plate” value ([1]; TA98, 2000 μg/plate, −S9) was 32.33 ± 3.67, the “number of revertant colonies per plate” value ([2]; TA100, 3.2 μg/plate, +S9) was 119.67 ± 7.33 and the “number of revertant colonies per plate” value ([2]; TA100, 3.2 μg/plate, −S9) was 109.00 ± 8.00. The “number of revertant colonies per plate” value ([2]; TA100, 16 μg/plate, +S9) was 103.67 ± 9.33, the “number of revertant colonies per plate” value ([2]; TA100, 16 μg/plate, −S9) was 101.00 ± 9.00 and the “number of revertant colonies per plate” value ([2]; TA100, 80 μg/plate, +S9) was 118.67 ± 14.33. For the same compound, the “number of revertant colonies per plate” value ([2]; TA100, 80 μg/plate, −S9) was 105.33 ± 13.67, the “number of revertant colonies per plate” value ([2]; TA100, 400 μg/plate, +S9) was 134.33 ± 12.67 and the “number of revertant colonies per plate” value ([2]; TA100, 400 μg/plate, −S9) was 129.67 ± 15.33. The “number of revertant colonies per plate” value ([2]; TA100, 2000 μg/plate, +S9) was 137.00 ± 14.00, the “number of revertant colonies per plate” value ([2]; TA100, 2000 μg/plate, −S9) was 122.67 ± 11.33 and the “number of revertant colonies per plate” value ([3]; pKM101, 3.2 μg/plate, +S9) was 50.33 ± 2.67. The “number of revertant colonies per plate” value ([3]; pKM101, 3.2 μg/plate, −S9) was 42.00 ± 3.00, the “number of revertant colonies per plate” value ([3]; pKM101, 16 μg/plate, +S9) was 54.00 ± 4.00 and the “number of revertant colonies per plate” value ([3]; pKM101, 16 μg/plate, −S9) was 46.00 ± 5.00. The “number of revertant colonies per plate” value ([3]; pKM101, 80 μg/plate, +S9) was 44.00 ± 4.00, the “number of revertant colonies per plate” value ([3]; pKM101, 80 μg/plate, −S9) was 41.33 ± 3.67 and the “number of revertant colonies per plate” value ([3]; pKM101, 400 μg/plate, +S9) was 53.00 ± 5.00. For the same compound, the “number of revertant colonies per plate” value ([3]; pKM101, 400 μg/plate, −S9) was 51.33 ± 3.67, the “number of revertant colonies per plate” value ([3]; pKM101, 2000 μg/plate, +S9) was 50.33 ± 3.67 and the “number of revertant colonies per plate” value ([3]; pKM101, 2000 μg/plate, −S9) was 47.00 ± 4.00. For the same compound, the “number of revertant colonies per plate” value ([4]; TA102, 3.2 μg/plate, +S9) was 214.33 ± 14.67, the “number of revertant colonies per plate” value ([4]; TA102, 3.2 μg/plate, −S9) was 208.00 ± 15.00 and the “number of revertant colonies per plate” value ([4]; TA102, 16 μg/plate, +S9) was 218.00 ± 9.00. The “number of revertant colonies per plate” value ([4]; TA102, 16 μg/plate, −S9) was 205.00 ± 11.00, the “number of revertant colonies per plate” value ([4]; TA102, 80 μg/plate, +S9) was 223.67 ± 17.33 and the “number of revertant colonies per plate” value ([4]; TA102, 80 μg/plate, −S9) was 209.33 ± 13.67. For the same compound, the “number of revertant colonies per plate” value ([4]; TA102, 400 μg/plate, +S9) was 219.67 ± 18.33, the “number of revertant colonies per plate” value ([4]; TA102, 400 μg/plate, −S9) was 211.00 ± 14.00 and the “number of revertant colonies per plate” value ([4]; TA102, 2000 μg/plate, +S9) was 236.33 ± 19.67. The “number of revertant colonies per plate” value ([4]; TA102, 2000 μg/plate, −S9) was 228.00 ± 16.00, the IC50 [5] was greater than 100 µM and the IC50 at 30 min [6] was greater than 100 µM. It also gave an IC50 at 30 min [7] greater than 100 µM, an IC50 at 30 min [8] greater than 100 µM and an IC50 [9] of 88.5 µM. For the same compound, the IC50 at 30 min [10] was greater than 100 µM, the IC50 at 30 min [11] was 9.25 µM and the “number of revertant colonies per plate” value ([12]; 3.2 μg/plate, +S9) was 57.67 ± 4.33. The “number of revertant colonies per plate” value ([12]; 3.2 μg/plate, −S9) was 52.00 ± 3.00, the “number of revertant colonies per plate” value ([12]; 16 μg/plate, +S9) was 46.00 ± 4.00 and the “number of revertant colonies per plate” value ([12]; 16 μg/plate, −S9) was 44.33 ± 5.67. The “number of revertant colonies per plate” value ([12]; 80 μg/plate, +S9) was 50.33 ± 3.67, the “number of revertant colonies per plate” value ([12]; 80 μg/plate, −S9) was 53.33 ± 5.67 and the “number of revertant colonies per plate” value ([12]; 400 μg/plate, +S9) was 54.33 ± 4.67. For the same compound, the “number of revertant colonies per plate” value ([12]; 400 μg/plate, −S9) was 56.00 ± 3.00, the “number of revertant colonies per plate” value ([12]; 2000 μg/plate, +S9) was 44.00 ± 5.00 and the “number of revertant colonies per plate” value ([12]; 2000 μg/plate, −S9) was 52.00 ± 6.00.

For `C=C[C@]1(C)C[C@@H](OC(=O)CSCCN(CC)CC)[C@]2(C)[C@H](C)CC[C@]3(CCC(=O)[C@H]32)[C@@H](C)[C@@H]1O` [tiamulin, Tiamulin fumarate, reference compound], the IC50 [13] is given as 1.6 µM.

Source: PMC10502144, “Anti-methicillin-resistant Staphylococcus aureus activity and safety evaluation of 14-O-[(5-ethoxycarbonyl-4,6-dimethylpyrimidine-2-yl) thioacetyl] mutilin (EDT)” (Scientific Reports, 2023)
